In one assay the target is T1, B. pahangi Hsp90 (Brugia pahangi, UniProt O61998).
T1 construct: Adult worms of B. pahangi were obtained from infected jirds; from tissue; host or cells: whole adult B. pahangi worms, ground and lysed in HFB buffer
Nature of the assay: Competition FP assay (displacement of Cy3B-GA), B. pahangi lysate. Type of assay: binding. As for the experimental part: Adult worms of B. pahangi were obtained from infected jirds after 3–4 months, exactly as described previously and were frozen in liquid nitrogen, ground in a pestle and mortar to a fine powder and re-suspended in an appropriate volume of HFB assay buffer (20 mM HEPES, pH 7.3, 50 mM KCl, 5 mM MgCl2, 20 mM Na2MoO4, 1% NP40). Protein concentrations were estimated using the BioRad protein assay. At this point lysates were freeze-dried for shipping to the USA.
(§1) The FP assay was set up essentially as described previously, [25]. […] The equilibrium binding of Cy3B-GA and recombinant human Hsp90α (Enzo Life Sciences, Farmingdale, NY USA) or parasite lysate was determined by creating a two-fold dilution series of protein/extract for an eleven-point curve with the first column containing no protein. […] All FP values are expressed in millipolarization (mP) units with the mP value of free Cy3B-GA probe set to 50. Equilibrium binding constants were determined by nonlinear regression using a one-site binding model (GraphPad Prism software).
(§2) The relative binding affinities of inhibitors to human or parasite-derived Hsp90 was determined using competitive FP binding assays. […] For parasite-derived Hsp90, an amount of parasite lysate resulting in 50% of maximal Cy3B-GA binding was used. […] Stock solutions of each compound were prepared in DMSO at a concentration of 10 mM and 3-fold serial dilutions prepared in DMSO for eleven point curves. […] The final concentration of Cy3B-GA was 6 nM and the final DMSO concentration in all wells was 0.5%. Free Cy3B-GA (mP set to 50) and buffer only (background) wells were included as controls on each plate. Plates were incubated at 8°C with gentle shaking for 20 h.

For another assay, the target named is B. malayi Hsp90 (Brugia malayi, UniProt A0A0H5S7Y7). Nature of the assay: Competition FP assay (displacement of Cy3B-GA), B. malayi lysate. The assay is classed as binding. As to the method: as §1, §2
Assay [1] deals with B. pahangi Mf (microfilariae). Briefly: Mf viability in vitro. The assay is classed as cell-based, Brugia pahangi. The following applies: for % death by day 7: Mf; for effect of lower concentrations on Mf: concentrations below the killing concentration; for condition of Mf: 250 nM, day 7. As for the experimental part: As adult Brugia worms are limited in numbers, initial experiments assessed the effect of each drug on Mf viability. Mf were purified from infected animals essentially as described previously. In brief, following lavage of the peritoneal cavity of an infected animal with Hanks Balanced Salt Solution (HBSS) pre-warmed to 37°C, Mf were collected by centrifugation and then purified from host cells by centrifugation through lymphoprep (Sigma). This procedure was repeated twice. Mf were collected from the pellet, washed twice in HBSS and once in worm culture medium (WCM) which comprised RPMI 1640, (Invitrogen Cat No: 52400), containing 5% heat inactivated fetal calf serum, 1% glucose, 100 units/ml penicillin and 100 µg/ml streptomycin (all Invitrogen). Mf were then dispensed into the wells of a 24-well plate to give approximately 200 Mf in 2.0 ml, using a single well for each drug concentration. All procedures were carried out using aseptic techniques. The five novel compounds, plus GA and medium alone controls, were tested three times against Mf over the full range of concentrations.

The test system of another assay is adult B. malayi worms. Conditions: 48 h of drug exposure. From the text: (§3) Plates were maintained for up to 10 days and the condition of adult parasites noted at regular intervals. In one experiment the effect of GA on Mf output by adult B. malayi worms was compared with B. pahangi. B. malayi worms were kindly provided by Prof. R. Maizels (University of Edinburgh). […] In all in vitro experiments, plates were viewed daily and the motility and condition of the parasites noted by two independent observers, of whom one was unaware of the contents of the well.

The test system of a further assay is adult B. pahangi worms. The following applies: 48 h of drug exposure.
From the text: as §3

The test system of the next assay is Brugia Hsp90. Nature of the assay: Competition FP assay, Brugia Hsp90 (species not separated). The assay is classed as binding. As for the experimental part:
as §1, §2

In a further assay the target is T2, recombinant human Hsp90α (Homo sapiens, UniProt P07900).
T2 construct: purchased Enzo Life Sciences
Briefly: Competition FP assay (displacement of Cy3B-GA), human Hsp90α. Type of assay: binding. As for the experimental part:
as §1
The relative binding affinities of inhibitors to human or parasite-derived Hsp90 was determined using competitive FP binding assays. […] For parasite-derived Hsp90, an amount of parasite lysate resulting in 50% of maximal Cy3B-GA binding was used. […] Stock solutions of each compound were prepared in DMSO at a concentration of 10 mM and 3-fold serial dilutions prepared in DMSO for eleven point curves. […] The final concentration of Cy3B-GA was 6 nM and the final DMSO concentration in all wells was 0.5%. […] Plates were incubated at 8°C with gentle shaking for 20 h.

The test system of another assay is adult female B. pahangi. Briefly: Adult female worm assay in vitro (Mf output and adult viability), continuous exposure. Type of assay: cell-based, Brugia pahangi. The following applies: initial screen 2.0 µM to 100 nM, adult female worms. As to the method:
For adult worm assays, adult female B. pahangi, 3–4 months old, were incubated individually in 2.0 ml of WCM overnight in 24-well plates and pre-screened for Mf production. […] For the drug experiments, six female worms of B. pahangi for each concentration of drug were cultured individually in 24-well plates in 2.0 ml of WCM containing drug, or carrier alone (DMSO) at a concentration equal to that in the highest concentration of drug. In some experiments, GA was used as a positive control. Initially, all five compounds were tested over selected concentrations starting at 2 µM to 100 nM (see Results for details). For Hsp90 inhibitors, Mf output by individual female worms is a sensitive indicator of adult worm viability and, in most experiments, was assessed at 72 h. In addition, adult worms were examined microscopically on a daily basis for 7–10 days to determine whether lower concentrations of drugs had any effects over a longer period of incubation. Results are expressed as mean Mf output ± SD over a 72 h period. Statistical significance between groups was calculated using the Mann Whitney test with P values<0.05 being considered significant.

[2] abbreviates: FP assay, best fit (95% confidence intervals), read-out: B. pahangi IC50.
Where [3] appears, read: best fit (95% confidence intervals), read-out: B. malayi IC50.
Setting [4] is: read-out: B. malayi IC50, best fit (95% confidence intervals).

Like-named read-outs stand apart in the source and are kept apart here. A value given as a limit tells only on which side of the number the result lay.

Usually IC50 stands for the concentration that inhibits the measured activity by half. In general, EC50 refers to the concentration needed to bring the measured effect to its halfway point.

`CCNC(=O)c1[nH]nc(-c2cc(Cl)c(O)cc2O)c1-c1ccc(OC)cc1` [VER-49009]: the values for the IC50 at B. pahangi Hsp90 (setting [2]) and on B. malayi Hsp90 (setting [3]) were 11 nM and 14 nM, respectively.

For the compound `COC1=C2C[C@@H](C)C[C@H](OC)[C@H](O)[C@@H](C)/C=C(\C)[C@H](OC(N)=O)[C@@H](OC)/C=C\C=C(/C)C(=O)NC(=CC1=O)C2=O` [Geldanamycin], the IC50 at B. malayi Hsp90 (setting [4]) is 12 nM. In assay [1] (31.25 nM, listed as GA), the “% death by day 7” value came to 90%. The “reduction in Mf output” value was found to be 74% with adult B. malayi worms (1.0 µM), 93% in the assay with adult B. malayi worms (2.0 µM), 78% in the assay on adult B. pahangi worms (1.0 µM) and 92% with adult B. pahangi worms (2.0 µM).

For the compound `CC(C)NCCCn1c(Sc2cc3c(cc2I)OCO3)nc2c(N)ncnc21` [PU-H71], the IC50 at B. pahangi Hsp90 (setting [2]) is 17 nM; on B. malayi Hsp90 (setting [3]), 27 nM.

Take `CCNC(=O)c1cc2c(-c3cc(OCCN4CCCC4)c(Cl)cc3Cl)nc(N)nc2s1` [NVP-BEP800]: the IC50 in the assay on Brugia Hsp90 (read-out: IC50 for binding to Brugia Hsp90) was around 7 nM; at B. pahangi Hsp90, 6.9 nM; at B. malayi Hsp90 (setting [4]) it was 8.7 nM; at recombinant human Hsp90α it was 13 nM. The EC50 in assay [1] (Brugia pahangi, 168 h, read-out: EC50 against Mf viability) is around 250 nM. Also, in assay [1] (500 nM), the “% death by day 7” value is given as “majority of Mf”. Besides, the “effect of lower concentrations on Mf” value in assay [1] (7 days) is given as “affected Mf motility but did not kill substantial numbers of worms”. The “concentration with significant effect on Mf output” value in the assay on adult female B. pahangi is at most 100 nM.

With `CC1(C)CC(=O)c2c(C(F)(F)F)nn(-c3ccc(C(N)=O)c(N[C@H]4CC[C@H](O)CC4)c3)c2C1` [SNX-2112], the IC50 at B. pahangi Hsp90 came to 15 nM; at B. malayi Hsp90 (setting [4]) it was 20 nM. For the same compound, the “condition of Mf” value in assay [1] is “very sluggish but still alive”. Besides, in the assay on adult female B. pahangi, the “concentration with significant effect on Mf output” value is reported as 500 nM.

For `CCNC(=O)c1noc(-c2cc(Cl)c(O)cc2O)c1-c1ccc(OC)cc1` [VER-50589], the values for the IC50 on B. pahangi Hsp90 (setting [2]) and at B. malayi Hsp90 (setting [3]) were 0.54 nM and 1.2 nM, respectively.

Take `COc1c(C)cnc(Cn2cnc3c(Cl)nc(N)nc32)c1C` [BIIB021]: the IC50 at B. pahangi Hsp90 turned out to be 16 nM; on B. malayi Hsp90 (setting [4]) it was 14 nM. In assay [1] (7 days, tested 4.0 µM to 0.976 nM), the “concentration active on Mf” value came to 4.0 µM. The “% death by day 7” value in assay [1] (4.0 µM) is 100%. Also, in assay [1] (7 days), the “effect of lower concentrations on Mf” value is given as “affected worm motility but did not kill the worms”. Moreover, the “concentration with significant effect on Mf output” value with adult female B. pahangi came to 2000 nM.

As to `Oc1cc(O)c(-c2noc3ccc(NCCN4CCOCC4)cc23)cc1Cl` [CAY10607], the “higher affinity for B. pahangi Hsp90 compared to B. malayi Hsp90” value in the assay with Brugia Hsp90 amounted to 10 fold. Besides, the IC50 was found to be 1.6 nM at B. pahangi Hsp90 (setting [2]) and 16 nM on B. malayi Hsp90 (setting [3]).

Consider `C=CCNC1=C2C[C@@H](C)C[C@H](OC)[C@H](O)[C@@H](C)/C=C(\C)[C@H](OC(N)=O)[C@@H](OC)/C=C\C=C(/C)C(=O)NC(=CC1=O)C2=O` [17-AAG], for which the IC50 on B. pahangi Hsp90 (setting [2]) came to 8 nM; on B. malayi Hsp90 (setting [3]), 2.5 nM.

With `CCc1cc(-c2n[nH]c(C)c2-c2ccc3c(c2)OCCO3)c(O)cc1O` [CCT018159], the IC50 at B. pahangi Hsp90 (setting [2]) is 240 nM; at B. malayi Hsp90 (setting [3]), 330 nM.

As for `CC1(C)CC(=O)c2c(C(F)(F)F)nn(-c3ccc(C(N)=O)c(N[C@H]4CCC[C@@H]4O)c3)c2C1` [SNX-9203], the half-maximal inhibitory concentration (IC50) at B. pahangi Hsp90 (setting [2]) worked out at 10 nM; on B. malayi Hsp90 (setting [3]), 11 nM; at recombinant human Hsp90α (FP assay, best fit (95% confidence intervals), read-out: HsHsp90α IC50) it was 3.8 nM. In assay [1], the “condition of Mf” value is on record as “most worms were alive but were much less motile than controls”. In addition, the “% death by day 7” value in assay [1] (500 nM) is 90%. In addition, the “concentration with significant effect on Mf output” value in the assay on adult female B. pahangi is listed as at most 100 nM.
